These results are taken from patent publication US10413517B2, “Composition and method for the treatment of neurological diseases and cerebral injury” (UNIVERSITY OF NOTRE DAME DU LAC, priority 2014, dated 2019).

The structures appear in SMILES notation.

One series has as its system Npc1^nmf164 fibroblasts. Kind of series: Filipin staining of cholesterol in cultured mouse skin fibroblasts. Type of series: cell-based. The conditions noted are these: 5 μM Vo for 48 hrs. On the procedure:
Ear pinna was cleaned with 70% alcohol and 2-3 small pieces (3×3 mm) were chopped and placed in 70% alcohol for 2 min and transferred to DMEM. Tissues were cut into small pieces and 2 ml of 0.25% trypsin were added, vigorously vortexed for 2 min and incubated at 37° C. with vortexing every 10 min. Trypsin was inactivated by adding 2 ml of culture media (DMEM+10%FBS). Cells were collected by spin (1000 rpm for 5 min), and were grown in DMEM+10% FBS in the presence penicillin (50 U/ml) and streptomycin (50 μg/ml). For treatment with vorinostat, fibroblasts (4×10^4) were plated in 24 well plate containing glass slide. Npc1^nmf164 fibroblasts were treated with 5 μM vorinostat for 48 hrs. Cells incubated with 0.025% DMSO served as vehicle control. Cells were fixed with 4% paraformaldehyde followed by incubation with filipin (100 μg/ml) to stain cholesterol. Slides were mounted using Vectashield (Vector laboratories) and processed for fluorescence microscopy.
(§1) Tissue sections after IFA and filipin stained fibroblasts were visualized with 40× oil-immersion objective lens (NA 1.35). […] Digital image collection were performed using an Olympus IX inverted fluorescence microscope and a Photometrix cooled CCD camera (CH350/LCCD) driven by DeltaVision software from Applied Precision (Seattle, Wash., USA). […] Images were analyzed using ImageJ software (NIH, MD, USA).

Series [1] relates to CD68, ITGAX, MIP1α and CTSD. Kind of series: qPCR of inflammatory markers in the liver. Type of series: in vivo, mouse. The conditions noted are these: 100 days; Vo 50 mg/Kg; HPBCD 2000 mg/Kg; TCF. As to the method: (§2) Vorinostat (50 mg/Kg)—Vorinostat was first dissolved in DMSO (100 mg/ml) and then diluted with 9 volume of Polyethylene Glycol 400 (PEG). This drug solution was named as ‘solution A’. Solution A was diluted with equal volume of water where the final concentration of each component was as follows; Vorinostat, 5 mg/ml; DMSO, 5% and PEG, 45%. Mice were given weekly intraperitoneal (i.p) injections starting at 21 days. Vorinostat (100 mg/Kg)—Vorinostat was first dissolved in DMSO (200 mg/ml) and then mixed with 9 volumes of PEG. Rest of the methods and injections plan were as described above. HPBCD (4000 mg/Kg)—40% HPBCD solution prepared in water. Mice were given weekly i.p injections starting at 7 days. HPBCD (2000 mg/Kg)—20% HPBCD solution prepared in water. Mice were given weekly i.p injections starting at 7 days. TCF (Vorinostat, 50 mg/Kg+HPBCD, 2000 mg/Kg, DMSO, 5%+PEG, 45%)—To prepare the formulation, the ‘solution A’ was first prepared as described above and equal volume of 40% HPBCD solution was slowly layered on top of it. The solution was gently mixed for 10 min at RT on rocker set at medium speed. […]
(§3) Quantitative PCR (qPCR) was performed using Power SYBR Green RNA-to-CT 1-Step Kit and an ABI Prism 7500 Fast real-time PCR system (Applied Biosystems, Grand Island, USA). […] The relative amount of transcript was determined using comparative CT method. […]

For the next series, the system named is NPC1 protein. The experiment in a line: NPC1 immunostaining of Purkinje cells in cerebellar sections. Type of series: in vivo, mouse. The conditions noted are these: 100 days old mice. As to the method: Mice were sacrificed by asphyxiation using CO2. Harvested organs were immersed fixed in 10% neutral buffered formalin (˜4% formaldehyde) for 24 hrs at RT. The organs were subsequently stored in 70% alcohol at RT until transfer to paraffin. Paraffin-embedded tissue sections (4-5 μm) were dewaxed in xylene and alcohol. Calbindin antigen retrieval was done by pre-incubating deparaffinized samples with 0.05% proteinase K (Dako, Germany) in 50 mM Tris-HCl (pH 7.5) for 8 min at RT. CTSS and NPC1 was retrieved by boiling the sections in acidic condition for 30 min. Blocking was done either with 2% goat serum (for calbindin and NPC1) or 2% rabbit serum (for cathepsin S) for 30 min at RT. Sections were incubated with anti-calbindin (1:1000, C9848, Sigma), anti-cathepsin S (20 μg/ml, M-19, Santa Cruz Biotechnology), anti-NPC1 (custom made against human NPC1 protein, 20 μg/ml) overnight at 4° C. […] Vectashield (Vector laboratories) was used as mounting medium and processed for fluorescence microscopy.
as §1

For series [2] the following is noted: cited from earlier work.
A further series concerns GFAP, MIP1α and CD68. Kind of series: qPCR of inflammatory markers in the brain. Type of series: in vivo, mouse. The conditions noted are these: day 100, once weekly dosing. On the procedure: as §2, §3
(In qPCR the cycle at which signal appears reflects the starting amount.)

`O=C(CCCCCCC(=O)Nc1ccccc1)NO` [vorinostat]: the “cholesterol levels in NPC fibroblasts (filipin)” value is on record as “reduced” with Npc1^nmf164 fibroblasts and “decreased cholesterol levels in NPC cells to those seen in fibroblasts from control” in the series on Npc1^nmf164 fibroblasts (listed as Vorinostat). For the same compound, in series [1], the “inflammatory markers in the liver” value is “significant anti-inflammatory activity”. In addition, the “NPC1 staining in Purkinje cells (in words)” value in the series on NPC1 protein is listed as “Slight staining of NPC1”. The “solubility in aqueous solution” value in series [2] is given as “poorly soluble in aqueous solution”.

`CC(O)COC[C@H]1O[C@@H]2O[C@H]3[C@H](O)[C@@H](O)[C@@H](O[C@H]4[C@H](O)[C@@H](O)[C@@H](O[C@H]5[C@H](O)[C@@H](O)[C@@H](O[C@H]6[C@H](O)[C@@H](O)[C@@H](O[C@H]7[C@H](O)[C@@H](O)[C@@H](O[C@H]8[C@H](O)[C@@H](O)[C@@H](O[C@H]1[C@H](O)[C@H]2O)O[C@@H]8COCC(C)O)O[C@@H]7COCC(C)O)O[C@@H]6COCC(C)O)O[C@@H]5COCC(C)O)O[C@@H]4COCC(C)O)O[C@@H]3COCC(C)O` (stereo partly drawn) [HPBCD, 2-Hydroxypropyl-β-cyclodextrin]: the “levels of inflammatory markers GFAP, MIP1α and CD68 in the brain” value in the series with GFAP, MIP1α and CD68 is “reduced their levels comparably to TCF and better than Vo”.
